Source: the supplement of paper PMC12698765
Structures can show the parent of a compound that is named as a salt. ± gives the standard deviation of the averaged measurements.

What was measured:
[1] = test system: 409B2 hiPSC (iCRISPR Cas9, FRMD7 editing); assay: MMEJ-attributed deletion frequency relative to solvent control (fold (ratio to mock)); higher = more MMEJ outcomes
Procedure: (§1)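 Subset screen of 55 drugs tested at 5 concentrations around the effective screening dose, in 409B2 iCRISPR Cas9 hiPSCs editing FRMD7 with a ssDNA donor. Drugs were applied for 24 h. Viability was read by resazurin and editing outcomes by amplicon sequencing (HDR, NHEJ <2 bp microhomology, MMEJ ≥2 bp microhomology). Values are relative to solvent mock controls; two biological replicates.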

[2] = test system: 409B2 hiPSC (iCRISPR Cas9, FRMD7 editing); assay: HDR (precise edit) frequency relative to solvent control (fold (ratio to mock)); higher = more homology-directed repair outcomes
Procedure: as §1

[3] = test system: 409B2 hiPSC (iCRISPR Cas9, FRMD7 editing); assay: NHEJ-attributed indel frequency relative to solvent control (fold (ratio to mock)); higher = more NHEJ outcomes
Procedure: as §1

[4] = test system: 409B2 hiPSC (iCRISPR Cas9, FRMD7 editing); assay: cell survival relative to solvent control (fold (ratio to mock)); higher = more surviving cells
Procedure: as §1

Structure (SMILES)	MMEJ-attributed deletion frequency ([1]; 200 nM)	MMEJ-attributed deletion frequency ([1]; 500 nM)	HDR ([2]; 200 nM)	HDR ([2]; 500 nM)	NHEJ-attributed indel frequency ([3]; 200 nM)	NHEJ-attributed indel frequency ([3]; 500 nM)	cell survival ([4]; 200 nM)	cell survival ([4]; 500 nM)	MMEJ-attributed deletion frequency ([1]; 1000 nM)	MMEJ-attributed deletion frequency ([1]; 2000 nM)	MMEJ-attributed deletion frequency ([1]; 5000 nM)	HDR ([2]; 1000 nM)	HDR ([2]; 2000 nM)	HDR ([2]; 5000 nM)	NHEJ-attributed indel frequency ([3]; 1000 nM)	NHEJ-attributed indel frequency ([3]; 2000 nM)	NHEJ-attributed indel frequency ([3]; 5000 nM)	cell survival ([4]; 1000 nM)	cell survival ([4]; 2000 nM)	cell survival ([4]; 5000 nM)	further results
NS(=O)(=O)c1ccccc1 [Benzenesulfonamide] (in DMSO)	0.912 ± 0.08	0.962 ± 0.038	1.1 ± 0.048	1.06 ± 0.046	0.995 ± 0.03	0.989 ± 0.029	1.13	1.17	–	–	–	–	–	–	–	–	–	–	–	–	MMEJ-attributed deletion frequency ([1]; 20 nM): 0.855 ± 0.14; MMEJ-attributed deletion frequency ([1]; 50 nM): 0.92339 ± 0.00028; MMEJ-attributed deletion frequency ([1]; 100 nM): 1.05 ± 0.23; HDR ([2]; 20 nM): 1.14 ± 0.063; HDR ([2]; 50 nM): 1.08 ± 0.053; HDR ([2]; 100 nM): 1.02 ± 0.038; NHEJ-attributed indel frequency ([3]; 20 nM): 0.951 ± 0.029; NHEJ-attributed indel frequency ([3]; 50 nM): 0.974 ± 0.026; NHEJ-attributed indel frequency ([3]; 100 nM): 0.969 ± 0.028; cell survival ([4]; 20 nM): 0.86; cell survival ([4]; 50 nM): 1.22; cell survival ([4]; 100 nM): 1.05
CC(C)(c1ccc(O)cc1)c1ccc(O)cc1 [Bisphenol A] (in DMSO)	0.965 ± 0.066	1.01 ± 0.15	1.023 ± 0.0052	0.983 ± 0.05	1.015 ± 0.0024	1.02 ± 0.051	1.22	1.14	–	–	–	–	–	–	–	–	–	–	–	–	MMEJ-attributed deletion frequency ([1]; 20 nM): 1.02 ± 0.062; MMEJ-attributed deletion frequency ([1]; 50 nM): 0.8949 ± 0.0088; MMEJ-attributed deletion frequency ([1]; 100 nM): 0.974 ± 0.23; HDR ([2]; 20 nM): 1.025 ± 0.0061; HDR ([2]; 50 nM): 1.01 ± 0.028; HDR ([2]; 100 nM): 1.07 ± 0.025; NHEJ-attributed indel frequency ([3]; 20 nM): 1 ± 0.011; NHEJ-attributed indel frequency ([3]; 50 nM): 1.01 ± 0.014; NHEJ-attributed indel frequency ([3]; 100 nM): 1.01 ± 0.045; cell survival ([4]; 20 nM): 1.02; cell survival ([4]; 50 nM): 1.14; cell survival ([4]; 100 nM): 0.953
Nc1c(CC(=O)O)cccc1C(=O)c1ccc(Br)cc1 [Bromfenac Sodium] (in DMSO)	0.866 ± 0.12	0.944 ± 0.072	1.09 ± 0.065	1.09 ± 0.07	0.984 ± 0.026	0.957 ± 0.032	1.06	1.2	0.811 ± 0.094	0.89 ± 0.033	0.976 ± 0.09	1.11 ± 0.058	1.05 ± 0.025	1.11 ± 0.053	0.984 ± 0.016	1.02 ± 0.022	0.975 ± 0.044	0.983	1.04	1.09	–
N=C(NCCCCCCNC(=N)NC(=N)Nc1ccc(Cl)cc1)NC(=N)Nc1ccc(Cl)cc1 [Chlorhexidine HCl] (in DMSO)	0.966 ± 0.067	0.8989 ± 0.0017	1.06 ± 0.051	1.09 ± 0.038	0.973 ± 0.014	0.995 ± 0.021	1.04	1.24	0.994 ± 0.067	1.07 ± 0.082	0.946 ± 0.12	1 ± 0.044	0.874 ± 0.023	0.294 ± 0.063	0.997 ± 0.011	1.05 ± 0.043	0.6546 ± 0.0051	1.02	1.03	0.0831	–
Nc1ccn(C[C@@H](CO)OCP(=O)(O)O)c(=O)n1 [Cidofovir] (in H2O)	–	–	–	–	–	–	–	–	–	0.789 ± 0.08	0.881 ± 0.029	–	1.06 ± 0.083	0.9 ± 0.055	–	0.843 ± 0.058	0.835 ± 0.019	–	0.624	0.548	MMEJ-attributed deletion frequency ([1]; 10000 nM): 0.924 ± 0.35; MMEJ-attributed deletion frequency ([1]; 20000 nM): 0.727 ± 0.12; MMEJ-attributed deletion frequency ([1]; 50000 nM): 0.968; HDR ([2]; 10000 nM): 0.85 ± 0.081; HDR ([2]; 20000 nM): 0.574 ± 0.012; HDR ([2]; 50000 nM): 1.01; NHEJ-attributed indel frequency ([3]; 10000 nM): 0.862 ± 0.049; NHEJ-attributed indel frequency ([3]; 20000 nM): 0.736 ± 0.051; NHEJ-attributed indel frequency ([3]; 50000 nM): 0.988; cell survival ([4]; 10000 nM): 0.333; cell survival ([4]; 20000 nM): 0.167; cell survival ([4]; 50000 nM): 0.863
CC(C)/N=c1\cc2n(-c3ccc(Cl)cc3)c3ccccc3nc-2cc1Nc1ccc(Cl)cc1 [Clofazimine] (in DMSO)	1.07 ± 0.15	0.967 ± 0.077	0.942 ± 0.032	0.91 ± 0.019	1.01 ± 0.022	1.027 ± 0.004	0.955	1.06	0.949 ± 0.022	0.957 ± 0.097	0.791 ± 0.14	0.912 ± 0.042	0.794 ± 0.029	0.772 ± 0.058	0.999 ± 0.017	1.028 ± 0.0037	0.974 ± 0.014	0.752	0.597	0.252	–
